Laboratory results from ChEMBL document CHEMBL1143695, “Synthesis and biological studies of novel 2-aminoalkylethers as potential antiarrhythmic agents for the conversion of atrial fibrillation” (J Med Chem, 2007).
Active and inactive are the calls of the source. No cut-off for these calls is given here.

Assays:
Rattus norvegicus [1] = experiment: CNS toxicity in iv dosed Sprague-Dawley rat assessed as cumulative convulsion dose; format: organism-based; conditions: in vivo
Rattus norvegicus [2] = experiment: Antiarrhythmic activity in intravenously dosed Sprague-Dawley rat with ischemia-induced arrhythmia; format: functional, Heart
in vivo = conditions: CD1, mouse, iv
Description: Toxicity in intravenously dosed CD1 mouse

Canis familiaris [3] = species: Canis familiaris; experiment: Reduction of blood pressure in Mongrel dog vagal atrial fibrillation model; format: functional, organism-based; conditions: Canis lupus familiaris
Canis familiaris [4] = species: Canis familiaris; experiment: Reduction of heart rate in Mongrel dog vagal atrial fibrillation model; format: functional, organism-based; conditions: Canis lupus familiaris
[5] = target: Potassium voltage-gated channel subfamily A member 5 (Homo sapiens, UniProt P22460); experiment: Inhibition of human potassium channel Kv1.5 by patch-clamp method
Sequence of Potassium voltage-gated channel subfamily A member 5 (P22460 whole entry): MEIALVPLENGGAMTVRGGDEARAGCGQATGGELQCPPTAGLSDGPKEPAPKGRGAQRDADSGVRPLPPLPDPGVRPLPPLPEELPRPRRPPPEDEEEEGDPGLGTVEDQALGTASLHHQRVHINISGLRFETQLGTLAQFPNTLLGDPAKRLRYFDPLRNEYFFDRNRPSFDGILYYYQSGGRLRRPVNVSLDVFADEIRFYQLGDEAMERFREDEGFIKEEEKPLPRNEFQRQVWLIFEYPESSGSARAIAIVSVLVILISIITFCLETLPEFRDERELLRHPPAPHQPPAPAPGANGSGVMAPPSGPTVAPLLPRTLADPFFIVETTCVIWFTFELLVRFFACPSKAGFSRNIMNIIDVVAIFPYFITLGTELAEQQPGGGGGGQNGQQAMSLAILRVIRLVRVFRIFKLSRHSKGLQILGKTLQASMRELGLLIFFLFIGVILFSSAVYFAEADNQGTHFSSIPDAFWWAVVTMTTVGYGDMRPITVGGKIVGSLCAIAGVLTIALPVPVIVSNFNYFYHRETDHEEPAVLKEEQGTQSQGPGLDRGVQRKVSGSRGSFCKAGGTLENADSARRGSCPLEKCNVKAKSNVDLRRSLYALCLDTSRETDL

[6] = target: T1, A-type voltage-gated potassium channel KCND2 (Rattus norvegicus, UniProt Q63881); experiment: Inhibition of rat potassium channel Kv4.2 by patch-clamp method
T1 sequence (Q63881 whole entry): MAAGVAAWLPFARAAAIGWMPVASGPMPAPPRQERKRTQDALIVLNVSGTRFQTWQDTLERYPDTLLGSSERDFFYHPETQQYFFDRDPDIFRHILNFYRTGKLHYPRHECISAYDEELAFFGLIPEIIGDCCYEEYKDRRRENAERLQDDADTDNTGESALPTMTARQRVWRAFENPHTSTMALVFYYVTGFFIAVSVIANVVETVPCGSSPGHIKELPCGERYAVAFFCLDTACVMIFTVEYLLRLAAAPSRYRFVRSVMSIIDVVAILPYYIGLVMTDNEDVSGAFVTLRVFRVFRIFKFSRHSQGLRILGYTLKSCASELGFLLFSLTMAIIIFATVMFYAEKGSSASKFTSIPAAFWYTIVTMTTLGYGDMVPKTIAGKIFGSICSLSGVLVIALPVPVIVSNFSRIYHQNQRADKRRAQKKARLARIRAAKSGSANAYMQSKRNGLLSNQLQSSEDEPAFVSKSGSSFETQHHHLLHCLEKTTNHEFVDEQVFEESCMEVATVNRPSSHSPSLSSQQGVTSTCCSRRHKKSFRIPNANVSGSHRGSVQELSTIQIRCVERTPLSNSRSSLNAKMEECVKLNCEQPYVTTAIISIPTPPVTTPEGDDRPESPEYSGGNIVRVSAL

SMILES | Activity (Rattus norvegicus [1]) | ED50 (Rattus norvegicus [2]) | other results
COc1ccc(CCO[C@@H]2CCCC[C@H]2N2CCOCC2)cc1OC | 113 µmol/kg | 1.5 µmol/kg/min | LD50 (in vivo): 97 µmol/kg
c1ccc2c(CCO[C@@H]3CCCC[C@H]3N3CCCC3)cccc2c1 | – | 0.9 µmol/kg/min | –
c1ccc2cc(CCO[C@@H]3CCC[C@H]3N3CCOCC3)ccc2c1 | 187 µmol/kg | 1.5 µmol/kg/min | –
c1cc(CCO[C@@H]2CCCC[C@H]2N2CCOCC2)c2ccsc2c1 | 54 µmol/kg | 0.7 µmol/kg/min | LD50 (in vivo): 38 µmol/kg
FC(F)(F)c1ccccc1CCO[C@@H]1CCCC[C@H]1N1CCOCC1 | 134 µmol/kg | 0.8 µmol/kg/min | –
Clc1ccc(CCO[C@@H]2CCCC[C@H]2N2CCOCC2)c(Cl)c1 | 94 µmol/kg | 2.1 µmol/kg/min | –
c1ccc2c(CCO[C@@H]3CCCC[C@H]3N3CCC4(C3)OCCO4)cccc2c1 | 41 µmol/kg | – | –
O=C1CCN([C@@H]2CCCC[C@H]2OCCCC2CCCCC2)C1 | 300 µmol/kg | – | –
COc1ccc(CCO[C@@H]2CCCC[C@H]2N2CCC3(C2)OCCO3)cc1OC | 91 µmol/kg | 1.6 µmol/kg/min | –
O=C1CCN([C@@H]2CCCC[C@@H]2OCCc2cccc3ccccc23)C1 | 145 µmol/kg | 1.6 µmol/kg/min | –
Clc1cccc(Cl)c1CCO[C@@H]1CCCC[C@H]1N1CCSC1 | 331 µmol/kg | 6.5 µmol/kg/min | –
c1cc(CCO[C@@H]2CCCC[C@H]2N2CCOCC2)c2ccoc2c1 | – | 1.4 µmol/kg/min | LD50 (in vivo): 56 µmol/kg
Brc1ccc(OCCO[C@@H]2CCCC[C@H]2N2CCOCC2)cc1 | 83 µmol/kg | 2.5 µmol/kg/min | –
COCCN(CCOC)[C@@H]1CCCC[C@H]1OCCc1ccc2ccccc2c1 | 83 µmol/kg | 3 µmol/kg/min | –
Brc1ccc(CCO[C@@H]2CCCC[C@H]2N2CCOCC2)c(Br)c1 | 123 µmol/kg | – | –
COc1ccc(CCCO[C@@H]2CCCC[C@H]2N2CCOCC2)c(OC)c1 | 94 µmol/kg | 1.2 µmol/kg/min | LD50 (in vivo): 130 µmol/kg
COc1ccc(CCCO[C@@H]2CCCC[C@H]2N2CCOCC2)cc1OC | 109 µmol/kg | 1.5 µmol/kg/min | LD50 (in vivo): 112 µmol/kg
O=C1CCN([C@@H]2CCCC[C@H]2OCCc2ccc(Br)cc2)C1 | 161 µmol/kg | 8 µmol/kg/min | –
CC(=O)N1CCN([C@@H]2CCCC[C@H]2OCCc2ccc3ccccc3c2)CC1 | 67 µmol/kg | – | –
Brc1ccc(CCO[C@@H]2CCCC[C@H]2N2CCOCC2)cc1 | 91 µmol/kg | 2.5 µmol/kg/min | LD50 (in vivo): 103 µmol/kg
O=C1CCN([C@@H]2CCCC[C@H]2OCC(c2ccccc2)c2ccccc2)C1 | 155 µmol/kg | 2.5 µmol/kg/min | –
O=C1CCN([C@@H]2CCCC[C@H]2OCCc2cccc3ccccc23)C1 (stereo in doubt; 26) | – | – | Activity (Canis familiaris [3]): inactive; Activity (Canis familiaris [4]): inactive
Clc1cccc(Cl)c1CCO[C@@H]1CCCC[C@H]1N1CCOCC1 | 86 µmol/kg | 1.2 µmol/kg/min | LD50 (in vivo): 76 µmol/kg
Brc1ccc(CCCO[C@@H]2CCCC[C@H]2N2CCOCC2)cc1 | 143 µmol/kg | 3.5 µmol/kg/min | LD50 (in vivo): 209 µmol/kg

SMILES | Activity (Rattus norvegicus [1]) | ED50 (Rattus norvegicus [2]) | other results
O=C1CCN([C@@H]2CCCC[C@H]2OCCc2ccccc2C(F)(F)F)C1 | 225 µmol/kg | 2.7 µmol/kg/min | –
Brc1ccc(CCO[C@H]2CCCC[C@H]2N2CCOCC2)cc1 (single isomer, unassigned) | 6.7 µmol/kg | 2 µmol/kg/min | –
C=C[C@H]1CN2CC[C@H]1C[C@@H]2[C@@H](O)c1ccnc2ccc(OC)cc12 [QUINIDINE] | 317 µmol/kg | 4 µmol/kg/min | –
O=C1CCN([C@@H]2CCCC[C@H]2OCCc2cccc3ccccc23)CC1 | 75 µmol/kg | 0.9 µmol/kg/min | –
O=C1CCN([C@@H]2CCCC[C@H]2OCCc2ccc(Br)c3ccccc23)C1 | 246 µmol/kg | 2.8 µmol/kg/min | –
COc1ccc(CCCCO[C@@H]2CCCC[C@H]2N2CCOCC2)cc1OC | 67 µmol/kg | 1.5 µmol/kg/min | –
c1ccc2c(CCO[C@@H]3CCCC[C@H]3N3CCOCC3)csc2c1 | 65 µmol/kg | 0.8 µmol/kg/min | LD50 (in vivo): 52 µmol/kg
OC1CCN([C@@H]2CCCC[C@H]2OCCc2cccc3ccccc23)C1 (mixture of isomers) | 67 µmol/kg | 0.8 µmol/kg/min | –
CCN(CC)CC(=O)Nc1c(C)cccc1C [LIDOCAINE] | 190 µmol/kg | 4.5 µmol/kg/min | IC50 [5]: 2190 µM; IC50 [6]: 1210 µM
COc1ccc(CCO[C@@H]2CCCC[C@H]2N2CCC(=O)C2)cc1OC | 235 µmol/kg | 4.5 µmol/kg/min | –
c1ccc2cc(OCCO[C@@H]3CCCC[C@H]3N3CCOCC3)ccc2c1 | 62 µmol/kg | – | –
O=C1CCN([C@@H]2CCCC[C@H]2OCCc2ccc(Br)cc2Br)C1 | 246 µmol/kg | – | –
O=C1CCN([C@@H]2CCCC[C@H]2OCCc2csc3ccccc23)C1 | 203 µmol/kg | – | –
Brc1ccccc1CCO[C@@H]1CCCC[C@H]1N1CCOCC1 | 125 µmol/kg | 1 µmol/kg/min | LD50 (in vivo): 86 µmol/kg
O=C1CCN([C@@H]2CCCC[C@H]2OCCc2ccccc2Br)C1 | 155 µmol/kg | – | –
OC1CCN([C@@H]2CCCC[C@H]2OCCc2ccccc2Br)C1 (mixture of isomers) | 67 µmol/kg | 0.4 µmol/kg/min | –
Brc1cccc(CCO[C@@H]2CCCC[C@H]2N2CCOCC2)c1 | 131 µmol/kg | 1.9 µmol/kg/min | –
COc1ccc(CCO[C@@H]2CCCC[C@H]2N2CCCC2)cc1OC | 118 µmol/kg | 1.3 µmol/kg/min | –
OC1CCN([C@@H]2CCCC[C@@H]2OCCc2cccc3ccccc23)C1 (mixture of isomers) | 70 µmol/kg | 0.4 µmol/kg/min | –
c1ccc2cc(CCO[C@@H]3CCCC[C@H]3N3CCOCC3)ccc2c1 | 85 µmol/kg | 0.8 µmol/kg/min | LD50 (in vivo): 130 µmol/kg
COc1ccc(CCO[C@@H]2CCCC[C@H]2N2CCNCC2)cc1OC | 392 µmol/kg | 1.6 µmol/kg/min | –
FC(F)(F)c1ccccc1CCO[C@H]1CCCC[C@H]1N1CCOCC1 (single isomer, unassigned) | 102 µmol/kg | 1.4 µmol/kg/min | –
O=C(NCC1CCCCN1)c1cc(OCC(F)(F)F)ccc1OCC(F)(F)F (centres undefined) [FLECAINIDE] | 113 µmol/kg | – | IC50 [5]: 51 µM; IC50 [6]: 10.1 µM; LD50 (in vivo): 20 µmol/kg
